Measured values reported in patent publication US12570641B2, “Solid forms of a CDK4 inhibitor” (Pfizer Inc., priority 2020, dated 2026).

Key:
Assay type in all cases: physicochemical
[1] = Moisture sorption (hygroscopicity), water sorption and desorption; conditions: for form change at the completion of the moisture sorption run by PXRD: 25° C.; for Weight Gain (%) at 25° C., 60% RH: comparative summary of Forms 1, 2, 6 and 8
Protocol: Water sorption and desorption studies were conducted on an automated vapor sorption analyzer (TA instruments Q5000 SA). The microbalance was calibrated using a 100 mg standard weight. The relative humidity (RH) sensor was calibrated at 5.0, 11.3, 32.8, 52.8, 75.3, and 84.3% RH (25° C.) using saturated salt solutions. Approximately 10-20 mg of the powder sample was placed in the quartz sample holder and dried at 3% RH at 60° C. The attainment of equilibrium was assumed when the weight change of the sample was <0.001 wt % in 5 min or by a maximum equilibration time of 300 minutes. […] Again, the attainment of equilibrium was assumed when the weight change of the sample was <0.001 wt % in 5 min or by a maximum equilibration time of 300 minutes. The weight gain at 60% RH is based on the weight after the initial drying step.
Water sorption and desorption studies of PF-07220060 monohydrate (Form 2), prepared as described in Example 2, were conducted according to General Method 6.
Water sorption and desorption studies of PF-07220060 hydrate (Form 1), prepared as described in Example 5B, were conducted according to General Method 6.
Comparative hygroscopicity experiments were performed using moisture sorption analysis according to General Method 6. PF-07220060 Forms 1, 2, 6, and 8 were evaluated using moisture sorption at 25° C., 60% RH. A form change at the completion of the run was not detected for any of the forms by PXRD.

[2] = Thermal stability by thermogravimetric analysis (TGA)
Protocol: Thermogravimetric analysis was conducted using a Discovery TGA (TA instruments) thermogravimetric analyzer. Samples of approximately 10 mg were weighed into aluminum pans and heated from ambient ([…]) to 250° C. at 10° C./minute heating rate under nitrogen purge (10 mL/min for both sample chamber and balance).
(§1) Thermal stability data were obtained through thermogravimetric analysis (TGA) according to General Method 4, and Differential Scanning Calorimetry (DSC) scan according to General Method 5A.

[3] = Slurry conversion in 10% MeCN/water, form by PXRD; conditions: room temperature
Protocol: Crystalline PF-07220060 hydrate (Form 1) (25 mg) prepared as described in Example 1, Vial A was suspended in 10% MeCN/water (0.5 mL) and slurried at room temperature for […].

[4] = Competitive slurry experiments in 2-propanol/1% water; conditions: 2-propanol/1% water, room temperature, 15 hours, PXRD
Protocol: Competitive slurry experiments were performed between Form 1 and Form 2 (Entry 1), and between Form 6 and Form 2 (Entry 2), in 2-propanol/1% water. Entry 1: […] The solids were collected with vacuum filtration and analyzed with PXRD. PXRD data was consistent with PF-07220060 monohydrate (Form 2). Entry 2: […] The solids were collected with vacuum filtration and analyzed with PXRD. PXRD data was consistent with PF-07220060 monohydrate (Form 2).

[5] = Thermal stability by Differential Scanning Calorimetry (DSC)
Protocol: Modulated Differential scanning calorimetry (DSC) measurements were performed with Discovery DSC (TA instruments) equipped with a refrigerated cooling accessory. All the experiments were performed in standard/Tzero aluminum pans. The cell constant was determined using indium and temperature calibration was performed using indium and tin as standards. All the measurements were done under continuous dry nitrogen purge (50 mL/min). Approximately 1-5 mg of solid sample was weighed into a Tzero aluminum pan, sealed non-hermetically and heated from −40° C. to 220° C. at 10° C./min heating rate. The experimental data were analyzed using commercially available software (TA Universal Analysis 2000/Trios software, TA Instruments).
as §1

CC(C)n1c(C(C)(C)O)nc2c(F)cc(-c3nc(N[C@@H]4CCOC[C@H]4O)ncc3Cl)cc21 [Form 1, 1,5-anhydro-3-({5-chloro-4-[4-fluoro-2-(2-hydroxypropan-2-yl)-1-(propan-2-yl)-1H-benzimidazol-6-yl]pyrimidin-2-yl}amino)-2,3-dideoxy-D-threo-pentitol]
form change at the completion of the moisture sorption run by PXRD ([1]; 60% RH): not detected | Weight gain (%) ([1]; 25 °C, RH 0%, listed as PF-07220060 hydrate (Form 1)): 0.05% | Weight gain (%) ([1]; 25 °C, RH 10%, desorption, listed as PF-07220060 hydrate (Form 1)): 1.26% | Weight gain (%) ([1]; 25 °C, RH 10%, sorption, listed as PF-07220060 hydrate (Form 1)): 1.23% | Weight gain (%) ([1]; 25 °C, RH 20%, desorption, listed as PF-07220060 hydrate (Form 1)): 2.38% | Weight gain (%) ([1]; 25 °C, RH 20%, sorption, listed as PF-07220060 hydrate (Form 1)): 2.34% | Weight gain (%) ([1]; 25 °C, RH 30%, desorption, listed as PF-07220060 hydrate (Form 1)): 2.87% | Weight gain (%) ([1]; 25 °C, RH 30%, sorption, listed as PF-07220060 hydrate (Form 1)): 2.84% | Weight gain (%) ([1]; 25 °C, RH 40%, desorption, listed as PF-07220060 hydrate (Form 1)): 3.13% | Weight gain (%) ([1]; 25 °C, RH 40%, sorption, listed as PF-07220060 hydrate (Form 1)): 3.10% | Weight gain (%) ([1]; 25 °C, RH 50%, desorption, listed as PF-07220060 hydrate (Form 1)): 3.30% | Weight gain (%) ([1]; 25 °C, RH 50%, sorption, listed as PF-07220060 hydrate (Form 1)): 3.26% | Weight gain (%) ([1]; 25 °C, RH 60%, desorption, listed as PF-07220060 hydrate (Form 1)): 3.41% | Weight gain (%) ([1]; 25 °C, RH 60%, sorption, listed as PF-07220060 hydrate (Form 1)): 3.37% | Weight gain (%) ([1]; 25 °C, RH 70%, desorption, listed as PF-07220060 hydrate (Form 1)): 3.49% | Weight gain (%) ([1]; 25 °C, RH 70%, sorption, listed as PF-07220060 hydrate (Form 1)): 3.46% | Weight gain (%) ([1]; 25 °C, RH 80%, desorption, listed as PF-07220060 hydrate (Form 1)): 3.55% | Weight gain (%) ([1]; 25 °C, RH 80%, sorption, listed as PF-07220060 hydrate (Form 1)): 3.53% | Weight gain (%) ([1]; 25 °C, RH 90%, listed as PF-07220060 hydrate (Form 1)): 3.61% | Weight gain (%) ([1]; 60 °C, RH 0% (initial drying step)): 0.00% | Weight Gain (%) at 25° C., 60% RH [1]: ~3% | Thermal stability via TGA (° C.) ([2]; listed as Form 1 (hydrate)): 20 °C | form after slurry by PXRD [3]: converted to PF-07220060 monohydrate (Form 2) | Out-going form [4]: converted to Form 2 | Thermal stability via DSC (° C.) ([5]; listed as Form 1 (hydrate)): 0 °C

CC(C)n1c(C(C)(C)O)nc2c(F)cc(-c3nc(N[C@@H]4CCOC[C@H]4O)ncc3Cl)cc21 [Form 8, 1,5-anhydro-3-({5-chloro-4-[4-fluoro-2-(2-hydroxypropan-2-yl)-1-(propan-2-yl)-1H-benzimidazol-6-yl]pyrimidin-2-yl}amino)-2,3-dideoxy-D-threo-pentitol]
form change at the completion of the moisture sorption run by PXRD ([1]; 60% RH): not detected | Weight Gain (%) at 25° C., 60% RH [1]: ~2% | Thermal stability via TGA (° C.) ([2]; listed as Form 8 (amorphous)): 20 °C | Thermal stability via DSC (° C.) ([5]; listed as Form 8 (amorphous)): −10 °C

CC(C)n1c(C(C)(C)O)nc2c(F)cc(-c3nc(N[C@@H]4CCOC[C@H]4O)ncc3Cl)cc21 [Form 6, 1,5-anhydro-3-({5-chloro-4-[4-fluoro-2-(2-hydroxypropan-2-yl)-1-(propan-2-yl)-1H-benzimidazol-6-yl]pyrimidin-2-yl}amino)-2,3-dideoxy-D-threo-pentitol]
form change at the completion of the moisture sorption run by PXRD ([1]; 60% RH): not detected | Weight Gain (%) at 25° C., 60% RH [1]: <1% | hygroscopicity relative to Form 8 and Form 1 ([1]; moisture sorption at 25° C., 60% RH): reduced hygroscopicity | Thermal stability via TGA (° C.) ([2]; listed as Form 6 (anhydrous)): 195 °C | Out-going form [4]: converted to Form 2 | thermal stability relative to Form 1 and Form 8 ([5]; TGA and DSC): improved thermal stability | Thermal stability via DSC (° C.) ([5]; listed as Form 6 (anhydrous)): 195 °C
